Biological target: Short transient receptor potential channel 6 (Mus musculus) (UniProt Q61143)
Assay: TRPC6 inhibitor potency, dose response, cell-based, mouse TRPC6, HEK293, membrane potential (AID 2696)
Conditions: TRPC6-expressing HEK293 cells, membrane potential dye fluorescence, acetylcholine-stimulated

Short transient receptor potential channel 6 (Mus musculus), sequence (Q61143 whole entry, looked up): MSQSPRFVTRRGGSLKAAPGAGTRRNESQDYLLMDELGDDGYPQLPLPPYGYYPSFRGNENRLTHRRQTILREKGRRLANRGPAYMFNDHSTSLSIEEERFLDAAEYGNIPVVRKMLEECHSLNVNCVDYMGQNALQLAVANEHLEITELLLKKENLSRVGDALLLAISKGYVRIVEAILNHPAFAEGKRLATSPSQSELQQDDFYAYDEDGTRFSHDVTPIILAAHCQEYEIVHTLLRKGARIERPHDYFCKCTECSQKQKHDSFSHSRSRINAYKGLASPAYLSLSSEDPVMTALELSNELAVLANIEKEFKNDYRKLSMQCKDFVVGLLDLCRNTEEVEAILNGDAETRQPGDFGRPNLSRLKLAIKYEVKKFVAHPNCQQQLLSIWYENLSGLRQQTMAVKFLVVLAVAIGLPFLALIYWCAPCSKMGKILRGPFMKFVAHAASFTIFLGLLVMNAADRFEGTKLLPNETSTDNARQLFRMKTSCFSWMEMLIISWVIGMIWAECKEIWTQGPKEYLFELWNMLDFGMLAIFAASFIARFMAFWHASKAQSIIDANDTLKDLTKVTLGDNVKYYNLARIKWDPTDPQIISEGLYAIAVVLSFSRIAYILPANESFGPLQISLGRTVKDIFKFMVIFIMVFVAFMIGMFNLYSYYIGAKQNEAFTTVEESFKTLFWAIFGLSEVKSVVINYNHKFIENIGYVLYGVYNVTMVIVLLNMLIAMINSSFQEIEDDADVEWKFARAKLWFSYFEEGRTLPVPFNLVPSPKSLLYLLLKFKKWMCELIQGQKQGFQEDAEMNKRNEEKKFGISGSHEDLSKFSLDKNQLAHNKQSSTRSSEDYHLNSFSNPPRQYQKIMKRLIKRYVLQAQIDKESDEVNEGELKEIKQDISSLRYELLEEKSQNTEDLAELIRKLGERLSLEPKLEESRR

| SMILES | IC50 [µM] |
| --- | --- |
| Cn1c(=O)[nH]c(=O)c2c1nc(N1CCCCCC1)n2CCN1CCCCCC1 | 39.8 |
| CCCCCCCCCCn1ccc(=N)cc1 | 39.8 |
| CCN(CC)CCCNc1nc(-n2nc(C)cc2C)nc2sc3c(c12)CC(C)(C)OC3 | 22.4 |
| COC(=O)c1ccc(CN2CCN(C3CCCC3)C(CCO)C2)cc1 (configuration not stated) | 35.5 |
| CCN(CC)CCCOC(=O)C1(c2ccccc2)CCCC1 | 11.2 |
| CCC(C)N(CCNC(=O)CC1Oc2ccccc2NC1=O)C1CCCCC1 (configuration not stated) | 28.2 |
| CC[N+](CC)(CC)CCCOC(=O)C(O)(c1ccccc1)C1CCCCC1 (configuration not stated) | 0.06 |
| CC1CCN(Cc2ccc(NC(=O)CC3Oc4ccccc4NC3=O)cc2)CC1 (configuration not stated) | 2.24 |
| C[N+](C)(C)C/C=C1/COCO1 | 11.2 |
| Cn1c(=O)c(C#N)c(-c2ccc(F)cc2)c2cc(C(=O)c3cc(Cl)cc(Cl)c3O)cnc21 | 44.7 |
| CCOc1ccc(CNc2ccc3c(c2)ncn3C(C)(C)C)cc1 | 14.1 |
| CC(C)(C)c1ccc(OCCCCCCN2CCNCC2)cc1 | 50.1 |
| CCCCc1nc2ccccc2c(N)c1CCC (tested in a mixture with another compound) | 70.8 |
| CC(C)C(O)(C#CCN1CCCCCC1)c1ccccc1 (configuration not stated) | 44.7 |
| CN1CCCC1CCNc1ccc2c(=O)c3ccccc3oc2c1 (configuration not stated) | 63.1 |
| CC(C)(C)NCc1cc(Br)ccc1OCc1cccs1 | 70.8 |
| Cc1cc(C)n(-c2nc(NCCCN(C)C)c3c4c(sc3n2)COC(C)(C)C4)n1 | 14.1 |
| Cc1ccc(C)c(NC(=O)C(NCC(C)(C)N2CCOCC2)c2ccccc2)c1 (configuration not stated) | 25.1 |
| CN(C)CCN(C(=O)c1cccs1)c1nc2cc3c(cc2s1)OCCO3 | 39.8 |
| CCOCCCNC(=S)N1CCCN(c2nc3cc(C)ccc3cc2C#N)CC1 | 44.7 |

| SMILES | IC50 [µM] |
| --- | --- |
| Cc1cc(-n2cccn2)ccc1CN1CCN(C2CCCC2)C(CCO)C1 (configuration not stated) | 0.5 |
| Cc1cc(N2CCN(C)CC2)ccc1NC(=O)c1ccc(-c2ccc(Cl)cc2)o1 | 44.7 |
| CC(Cc1ccccc1Sc1ccc(O)cc1)N(C)C (configuration not stated) | 31.6 |
| CCOC(=O)N1CCN(Cc2nc(-c3ccc(Cl)cc3)no2)CC1 | 79.4 |
| CN(C)CCOC(=O)C(c1ccccc1)C1(O)CCCC1 (configuration not stated) | 1.78 |
| CCCCn1c(-c2ccc([N+](=O)[O-])cc2)n[nH]c1=S | 6.31 |
| C[N+](C)(C)CCOC(=O)C1(c2ccccc2)CCCC1 | 8.91 |
| COc1ccc2ccccc2c1CNCCc1ccccc1 | 50.1 |
| Cc1ccccc1OCC(=O)NCCS(=O)(=O)N1CCN(c2ccc(F)cc2)CC1 | 44.7 |
| CCCCCOc1ccc(CSC(=N)N)cc1[N+](=O)[O-] | 79.4 |
| O=C(c1ccc(C(F)(F)F)cc1)C1CCCN(C2CCSCC2)C1 (configuration not stated) | 39.8 |
| CCC(C)N(CCNC(=O)CC1Oc2ccc(C)cc2NC1=O)C1CCCCC1 (configuration not stated) | 15.8 |
| OC(Cn1c2ccccc2c2ccccc21)C[n+]1cccc2ccccc21 (configuration not stated) | 35.5 |
| Cc1nnc(SCCn2c(N3CCN(C)CC3)nc3c2c(=O)[nH]c(=O)n3C)s1 | 50.1 |
| CC(C)C(O)(C#CCN1CCCCC1)c1ccccc1 (configuration not stated) | 11.2 |
| CCCC[n+]1ccc(-c2nc3ccc([N+](=O)[O-])cc3[nH]2)cc1 | 56.2 |
| CCCCNC(=O)c1cc2c(=O)n3cccc(C)c3nc2n(Cc2ccncc2)c1=N | 44.7 |
| Cc1c(C(=O)OCCN2CCCCC2)oc2ccccc12 | 25.1 |
| Clc1ccc2c(N3CCCC3)ccnc2c1 | 56.2 |
| C[C@H]1OC[C@@H](C[N+](C)(C)C)O1 | 4.47 |

| SMILES | IC50 [µM] |
| --- | --- |
| C[n+]1ccc(/C=N/Nc2nc(Cl)c(C#N)c(Cl)c2Cl)cc1 | 39.8 |
| CC(NC(=O)Nc1nnc(C(F)(F)F)s1)(C(F)(F)F)C(F)(F)F | 22.4 |
| COc1ccc2nc(C)cc(Nc3ccc(N4CCN(C)CC4)cc3)c2c1 | 79.4 |
| C[N+]1(C)[C@@H]2CC[C@H]1CC(OC(=O)[C@@H](CO)c1ccccc1)C2 (some centres not stated) | 0.02 |
| Cc1ccc(Sc2c([N+](=O)[O-])c(C)nn2C)cc1 | 35.5 |
| N#CCCN(CCN1CCCC1)S(=O)(=O)c1ccc(-c2ccc([N+](=O)[O-])cc2)cc1 | 63.1 |
| Cc1cc(C)c2nc(N3CCC(C(=O)NCCCN4CCCCC4)CC3)sc2c1 | 39.8 |
| CCN(CC)CC(=O)Nc1ccc(-c2nc3cc(NC(=O)CN(CC)CC)ccc3o2)cc1 | 79.4 |
| Cc1cc(C)c2nc(C)cc(Nc3ccc(C(=O)NCCO)cc3)c2c1 | 44.7 |
| O=C(NC(Nc1ncc(S(=O)(=O)c2ccc([N+](=O)[O-])cc2)s1)(C(F)(F)F)C(F)(F)F)c1ccc(Cl)cc1 | 44.7 |
| O=C1c2ccccc2-c2onc3c(N4CCN(CCO)CC4)cc(N4CCN(C(=O)c5ccco5)CC4)c1c23 | 79.4 |
| N#Cc1c(N2CCNCC2)nc(-c2ccco2)c2c1CCCC2 | 44.7 |
| Cc1ccc(S(=O)(=O)NNC(=O)C2CCN(Cc3ccccc3)CC2)cc1 | 2.82 |
| CCSc1ccc2cc(OC)ccc2[n+]1CC | 50.1 |
| CCOC(=O)c1cnc2c(Cl)cccc2c1NCCN(C)C | 63.1 |
| Cc1cc(C)n(-c2nc(NCCCN(C)C)c3c4c(sc3n2)CCCC4)n1 | 44.7 |
| COCCCNC(=S)N1CCCN(c2nc3cc(C)ccc3cc2C#N)CC1 | 39.8 |
| CCCCCCn1c2c(c(=N)c3c1CCC3)CCC2 | 79.4 |

Other lines, results leading:

| IC50 [µM] | SMILES |
| --- | --- |
| 70.8 | Cc1cccc(-c2nc(NCCCN3CCOCC3)c3ccccc3n2)c1 |
| 50.1 | O=C(CSc1ncccn1)N1CCN(C(c2ccccc2)c2ccccc2)CC1 |
| 44.7 | Nc1nc(N2CCN(C/C=C/c3ccccc3)CC2)nc2ccccc12 |
| 50.1 | O=[N+]([O-])c1cccc(OCCCN2CCC(Cc3ccccc3)CC2)c1 |
| 3.98 | c1ccc(Cn2c(-c3ccccc3)c[n+]3c2SCCC3)cc1 |
| 11.2 | CC1CCCN1CC#CC(O)(c1ccccc1)c1ccccc1 (configuration not stated) |
| 6.31 | CN(C)CCCOC(=O)C1c2ccccc2Oc2ccccc21 |
| 50.1 | CCN(CC)c1ccc2cc(C(N)=O)/c(=N\NC(=O)c3ccncc3)oc2c1 |
| 44.7 | N=c1sccn1CC(=O)Nc1cc(Cl)ccc1Oc1ccccc1 |
| 50.1 | COC(=O)c1ccc(NC2(C#N)C(=O)Nc3ccccc32)cc1 (configuration not stated) |
| 70.8 | COc1ccc(OC)c2sc(N(CCN(C)C)C(=O)c3ccc4ccccc4c3)nc12 |
| 44.7 | COc1ccc2ccccc2c1CNCc1ccc(C)cc1 |
| 44.7 | COCC(C)NC(=O)c1ccc(CN2CCc3ccccc3C2)cc1 (configuration not stated) |
| 39.8 | CC(C)c1ccc(OCC(O)Cn2cnc3ccccc32)cc1 (configuration not stated) |
| 35.5 | CCN(CC)CCn1c(=N)n(CCOc2ccccc2)c2ccccc21 |
| 1.12 | OC(C#CCN1CCCCC1)(c1ccccc1)c1ccccc1 |
| 7.08 | O=S(=O)(Nc1nc2ccccc2[nH]1)c1ccc(Cl)cc1 |
| 44.7 | CCN(CC)CCSc1nnc(Nc2ccccc2)n1-c1ccccc1 |
| 31.6 | COc1ccc(Cl)cc1Nc1nc(N)c2ccccc2n1 |
| 44.7 | CC(C)c1ccc(N2C(=O)CC(Sc3nc4ccccc4o3)C2=O)cc1 (configuration not stated) |

| IC50 [µM] | SMILES |
| --- | --- |
| 14.1 | CCN(CC)CCC#CC(O)(c1ccccc1)c1ccccc1 |
| 39.8 | Cc1onc(-c2c(F)cccc2Cl)c1C(=O)NC(=S)Nc1c(C)n(C)n(-c2ccccc2)c1=O |
| 44.7 | CC(C)(C)c1ccc(Cn2c(=N)n(CC(O)c3ccco3)c3ccccc32)cc1 (configuration not stated) |
| 8.91 | CN(C)CCC(=O)N1c2ccccc2Sc2ccc(Cl)cc21 |
| 44.7 | COc1ccccc1Nc1nc(N)nc(CSC(=S)N2CCCCC2C)n1 (configuration not stated) |
| 39.8 | CN(C)C(C)(C)C#CC(O)(c1ccccc1)c1ccccc1 |
| 17.8 | Cc1ccc(C(=O)OCCc2sc[n+](Cc3ccccc3)c2C)cc1 |
| 70.8 | Cc1cccn2c(=O)c3cc(C(=O)NC(C)C)c(=N)n(Cc4ccncc4)c3nc12 |
| 3.16 | CC(C)Cn1c(=O)c(C(=O)Nc2ccncc2)c(O)c2ccccc21 |
| 50.1 | Oc1ccccc1Nc1nc(NCC2CCCO2)c2ccccc2n1 (configuration not stated) |
| 39.8 | CN(C)CCn1c(C(=O)Nc2ccccc2)cc2ccccc21 |
| 50.1 | CCOCCN1CCN(C2c3ccccc3CSc3ccccc32)CC1 (configuration not stated) |
| 70.8 | Nc1c2ccccc2nc2ccccc12 |
| 70.8 | Cc1cccc(-c2nc(NCCCN(C)C)c3ccccc3n2)c1 |
| 39.8 | CCCc1ncc(C(O)(c2ccccc2)c2ccccc2)n1C |
| 79.4 | Cc1c(Cl)cccc1Nc1nc(NCCO)c2ccccc2n1 |
| 15.8 | CN1CCN(C2=Nc3cc(Cl)ccc3Nc3ccccc32)CC1 |
| 8.91 | CCN(CC)CC#CC(O)(c1ccccc1)c1ccccc1 |
| 50.1 | Cc1ccc(-c2nc(C(=O)NCCCN3CCOCC3)cc3c2[nH]c2ccccc23)cc1 |
| 63.1 | CCN(c1ccccc1)S(=O)(=O)c1cccc(C(=O)N2CCN(S(=O)(=O)c3ccccc3)CC2)c1 |

| IC50 [µM] | SMILES |
| --- | --- |
| 79.4 | CCN(CC)CCNc1nc2cc(OC)c(OC)cc2c2nc(-c3ccccc3)nn12 |
| 17.8 | S=C1N(c2ccccc2)C(c2ccc(Br)cc2)N2CCCN12 (configuration not stated) |
| 31.6 | C/C(=N/OC(=O)c1c(-c2c(Cl)cccc2Cl)noc1C)c1cnccn1 |
| 44.7 | CCN(CC)CCCNc1nc2ccccc2c2nc(-c3ccncc3)nn12 |
| 70.8 | c1ccc(CNc2c3ccccc3nc3ccccc23)cc1 |
| 50.1 | O=[N+]([O-])c1cc([N+](=O)[O-])c2c(=Nc3ccccc3)n(-c3ccccc3)n(O)c2c1 |
| 44.7 | Cc1cc(Nc2cccc([N+](=O)[O-])c2)c2cccc(C)c2n1 |
| 70.8 | CN(C)CCOc1nc(-c2ccccc2)nc2c1oc1ccccc12 |
| 4.47 | Cc1cccc[n+]1CC(=O)N1c2ccccc2Sc2ccccc21 |
| 70.8 | Cc1cccc(OCc2nnc(SCc3cc(=O)n4cc(Br)ccc4n3)o2)c1 |
| 50.1 | Brc1ccc(-c2c[n+]3c(n2-c2ccccc2)SCC3)cc1 |
| 50.1 | CC1(C)CC(N=c2cc(-c3ccccc3)oc3ccc(Cl)cc23)CC(C)(C)N1 |
| 44.7 | N=c1c(C(=O)NCC2CCCO2)cc2c(=O)n3ccccc3nc2n1Cc1ccccc1Cl (configuration not stated) |
| 44.7 | c1ccc(-c2nc(-c3ccccn3)nc(-c3ccccn3)n2)nc1 |
| 79.4 | CN(C)c1ccc(C2N(C)C(=O)c3ccccc3N2C)cc1 (configuration not stated) |
| 39.8 | Oc1ccccc1Oc1ncc(Br)c(N2CCOCC2)n1 |
| 28.2 | Cc1cc(C)nc(/N=C(\N)N(Cc2ccccc2)Cc2ccccc2)n1 |
| 79.4 | CN(C)CCNc1c2c(c(C#N)c3nc4ccccc4n13)CCCC2 |
| 2.24 | C[N+]1(CC#CC(O)(c2ccccc2)c2ccccc2)CCCC1 |
